Values of other authors, collected in US7108866B1, “Chronotherapeutic diltiazem formulations and the administration thereof” (Biovall Laboratories International SRL, priority 1999, dated 2006).

Conditions: at steady state

COc1ccc([C@@H]2Sc3ccccc3N(CCN(C)C)C(=O)[C@@H]2OC(C)=O)cc1 [Diltiazem]
Tmax: 2 to 6 h
